Measured values published in patent US6465007B1, “Transgene expression in polarized cells” (Genzyme Corporation, priority 1998, dated 2002).

Tests used:
mouse trachea [1] = assay: Intranasal instillation of Ad2βgal-4, X-gal staining of airways; type: in vivo; settings: for X-gal staining in the trachea: FIG. 4
Protocol: Female BALB/c mice 9-12 weeks of age were purchased from Taconic (Germantown, N.Y.). In some groups, mice were instilled intranasally with 25 μl of a solution containing EGTA (pH 7.5), followed by 25 μl of 5% sucrose in PBS containing Adβgal-4 (2×10^8 IU). In other groups, mice were co-instilled with 25 μl of a solution prepared by mixing equal volumes of a 2× (4×10^8 IU/25 μl) Ad2βgal-4 solution in 10% sucrose with 2×EGTA prior to instillation.
(§1) Cytochemical localization of Ogal expression in the trachea was observed using 5-bromo-4-chloro-3-indolyl-β-D-galactopyranoside (X-gal; Sigma). In brief, cannulated mouse lungs were fixed for 10 min by infusion of a fixing solution (2% paraformaldehyde and 0.2% glutaraldehyde in PBS). The lungs were then rinsed twice with 50 mM glycine in PBS, filled with X-gal solution, and stained overnight. Staining was stopped by transfering the samples into the fixing solution.
Trachea with staining levels were defined on a scale of 0 to 3, 0 indicating no cells staining for βgal, and a value of 3 indicating a large number of cells positive for the transgene. To evaluate the effect of EGTA concentration on AdV-mediated gene transfer in the trachea, mice were pre-treated with various concentrations of EGTA 0.5 h before AdV instillation. In some animals, AdV and EGTA were co-instilled. To exclude the possibility that any observed enhancement of expression was due to a hyperosmotic effect of the EGTA solution, a 20% mannitol solution (osmolarity similar to 0.4M EGTA) was included as a control in both the pre-treatment and co-instillation models.

mouse trachea [2] = assay: Aerosolized Ad2βgal-4 after intranasal pre-treatment, X-gal staining; type: in vivo
Protocol: Viral aerosols were generated using a MiniHEART low flow jet nebulizer (Vortran, Sacramento, Calif.). The nebulizer was operated at 50 psi with compressed medical grade air at the maximum flow rate (˜2.21 pm). Animals were exposed to the aerosol in a whole-body exposure chamber. Ten ml of an Ad2βgal-4 solution (5×10^10 IU) was aerosolized over approximately one hour. Some mice were pre-treated with 50 μl of dH2O or EGTA solution by intranasal instillation 0, 15, 30, or 60 min before aerosolization, while others received no treatment prior to exposure to aerosol. X-gal staining was performed 3 days post aerosolization.
as §1

AdV = assay: Effect on AdV titer assessed on 293 cells; settings: concentrations up to 0.4 M
Protocol: To rule out the possibility that EGTA might enhance the activity of AdV, the effects of EGTA on AdV titer were assessed on 293 cells.

O=C(O)CN(CCOCCOCCN(CC(=O)O)CC(=O)O)CC(=O)O [EGTA, Ethylene glycol bis(B-aminoethyl ether) N,N,N′,N′-tetraacetic acid]
X-gal staining in the trachea (mouse trachea [1]; 0.4M pre-treatment group): most consistent and highest X-gal staining
X-gal staining in the trachea (mouse trachea [1]; treated mice vs AdV alone, 2×10^8 IU): marked increase
gene expression in trachea, primary bronchi and small airways (X-gal staining) (mouse trachea [1]; virus instilled 0.5 h after treatment): significantly enhanced
X-gal stained cells in trachea after AdV aerosol (mouse trachea [2]; 50 μl of 0.1 M intranasal 30 min prior to aerosol): significant number of positively stained cells
X-gal stained cells in trachea after AdV aerosol (mouse trachea [2]; pretreated 1 h prior to aerosol): no significant increase
effect on virus activity (AdV): no measurable effect
